Assay results reported in patent US20100048564A1, “FUSED BICYCLIC HETEROARYL DERIVATIVE” (DAIICHI SANKYO COMPANY, LIMITED, priority 2007, published 2010).
Read-outs that look alike come from different tables or passages of the source.

Assays:
Rat white adipocytes = experiment: Adipocyte differentiation inhibition test (Test Example 3); format: cell-based; details: with Compound A 3.3 nM, 5 days, Oil Red O ABS550, N.D. denotes not calculable; for IC50: Adipocyte, 120 h
Experimental: Rat white adipocytes included in a white adipocyte culture kit purchased from Primary Cell Co., Ltd. were subjected to this test. A medium included in the white adipocyte culture kit purchased from Primary Cell Co., Ltd. was used as a growth medium or a differentiation-inducing medium.
The whole of the transportation medium was extracted immediately after the arrival of the purchased cells. The growth medium was added in an amount of 5 ml(/25 cm^2-flask), and the cells were cultured for one day. Thereafter, a cell suspension (83,000 cells/mL) was prepared using the growth medium. The cell suspension was dispensed to a 96-well type-I collagen-coated microplate (Becton, Dickinson and Company) at 5,000 to 6,000 cells/well (60 μL/well). A well to which only the growth medium not containing cells was dispensed (blank well) was provided as a blank group in each plate.
3) For the negative control group, DMSO diluted 20-fold with the differentiation-inducing medium was added at 3 μL/well (final DMSO concentration: 0.1% (v/v)) to the wells into which the cells were seeded.
After culturing for five days, the whole of the differentiation-inducing medium was removed from each well, and 60 μL of a 10% (v/v) formaldehyde solution (fixative solution) was added to each well. The cells were incubated at room temperature for 20 minutes. The whole of the fixative solution was removed and 60 μL of a 0.2% (v/v) Triton X-100 solution (Sigma) was dispensed to each well. The cells were incubated at room temperature for five minutes. The whole of the Triton X-100 solution was removed. A fat stain was prepared by dissolving Oil Red 0 (Sigma) in a 60% (v/v) isopropanol solution at 0.3% (w/v), and 60 μL of the fat stain was dispensed to each well. The cells were incubated at room temperature for 10 minutes. The whole of the fat stain was removed, and then 60 μL of a 60% (v/v) isopropanol solution was dispensed and removed. Thus, each well was washed twice. Thereafter, DMSO was added to each well at 100 μL per well, followed by stirring at room temperature for five minutes. […] The degree of adipocyte differentiation (%) of the test compound-added group was calculated assuming that the measured ABS550 of the positive control group was 100% and the measured ABS550 of the negative control group was 0.
N.D. denotes not calculable.

[1] = molecular target: T1, GAL4-PPARγ chimeric receptor (Homo sapiens, UniProt P37231); experiment: Measurement of PPARγ activation effect/modulator activity, GAL4-PPARγ reporter assay in COS-7 cells (Test Example 5); format: cell-based; details: for Emax: COS-7
T1 construct: containing amino acids 175 to 475 of human PPARγ and a stop codon at the carboxy end; expressed in transfected cells; host or cells: COS-7 (monkey kidney) cells, transfected with pM-PPARγ and pFR-Luc
T1 sequence (P37231 with tags, fused parts or gaps): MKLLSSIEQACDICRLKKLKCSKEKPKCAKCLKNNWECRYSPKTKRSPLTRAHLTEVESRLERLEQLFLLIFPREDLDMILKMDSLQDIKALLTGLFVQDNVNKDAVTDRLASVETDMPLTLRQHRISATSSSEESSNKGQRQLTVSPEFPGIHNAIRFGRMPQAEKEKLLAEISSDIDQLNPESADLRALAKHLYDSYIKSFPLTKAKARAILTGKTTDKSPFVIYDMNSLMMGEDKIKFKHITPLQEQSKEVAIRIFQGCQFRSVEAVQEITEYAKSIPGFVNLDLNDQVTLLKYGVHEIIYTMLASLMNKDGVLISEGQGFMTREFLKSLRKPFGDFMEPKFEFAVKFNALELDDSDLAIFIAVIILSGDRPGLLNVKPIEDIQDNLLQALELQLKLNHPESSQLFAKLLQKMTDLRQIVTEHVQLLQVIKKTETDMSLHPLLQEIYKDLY
Experimental: The details will be shown below.
The plasmid is a gene that can express a GAL4-PPARγ chimeric receptor in mammalian cells.
The previously acquired plasmid pM-PPARγ and the plasmid pFR-Luc purchased from Stratagene Cloning Systems, Inc. were dissolved in deionised water at a concentration of 1 mg/mL each.
On the following day, the cells were harvested by trypsin treatment, suspended in phenol red-free Dulbecco's modified Eagle's medium containing […] 10% fetal bovine serum, seeded into a white 96-well plate (manufactured by Costar) using the medium in a volume of 95 μL per well, and cultured overnight.
The test compound was dissolved in dimethyl sulfoxide at a concentration of 30 mM. […] Dimethyl sulfoxide was prepared for the control group. Rosiglitazone dissolved in dimethyl sulfoxide at a concentration of 30 mM was prepared for the positive control group. They were diluted 150-fold with the medium, and 5 μL of the dilution was added to the wells in which the cells were grown. The concentrations of the test compound treating the cells ranged from 10 μM to 0.006 nM. After the addition, the cells were cultured overnight.
On the following day, the medium was removed, and Luc Lite (manufactured by PerkinElmer Inc.) was prepared according to the attached document and added at 50 microliters per well. The plates with cells in the Luc Lite was stirred for about 30 minutes. The amount of luminescence in each well was measured as luciferase activity using Analyst (Molecular Devices) for 0.5 second. A dose-dependent curve was drawn.

[2] = maximum luciferase activity, positive control (Rosiglitazone) 100%, control 0%, read-out: Emax (%)
[3] = COS-7 cells with pM-PPARγ and pFR-Luc, concentration represented by Emax/2, read-out: EC50

Compound	melting point [°C]	IC50 (Rat white adipocytes) [µM]	Emax [1, 2] [%]	EC50 [1, 3] [pM]	Imax (%) (Rat white adipocytes)	EC50 [1] [pM]	Emax [1] [%]
Cc1cc(Oc2ccc3nc(COc4cccc(C(=O)O)c4)n(C)c3c2)cc(C)c1N.Cl.Cl [Example 2, 3-{[6-(4-Amino-3,5-dimethylphenoxy)-1-methyl-1H-benzimidazol-2-yl]methoxy}benzoic acid dihydrochloride]	235 to 239	0.012	73.3	299000	−33	–	–
Cl.Cn1c(COc2cccc(C(=O)O)c2)nc2ccc(Oc3ccccc3)cc21 [Example 14, 3-[(1-Methyl-6-phenoxy-1H-benzimidazol-2-yl)methoxy]benzoic acid hydrochloride]	–	–	–	–	–	845000	89.6
Cl.Cl.Cn1c(COc2cccc(C(=O)O)c2)nc2ccc(Oc3ccccc3)nc21 [Example 16, 3-[(3-Methyl-5-phenoxy-3H-imidazo[4,5-b]pyridin-2-yl)methoxy]benzoic acid dihydrochloride]	–	–	60.9	550000	–	–	–

Further lines, with some results ahead:

melting point [°C]	IC50 (Rat white adipocytes) [µM]	Emax [1, 2] [%]	EC50 [1, 3] [pM]	Compound	Imax (%) (Rat white adipocytes)	EC50 [1] [pM]	Emax [1] [%]
–	0.053	91	4.74e+06	Cl.Cn1c(COc2cccc(C(=O)O)c2)nc2ccc(Oc3cccc(F)c3)cc21 [Example 8, 3-{[6-(3-Fluorophenoxy)-1-methyl-1H-benzimidazol-2-yl]methoxy}benzoic acid hydrochloride]	−29	–	–
–	0.045	46.5	67000	Cl.Cn1c(COc2cccc(C(=O)O)c2)nc2ccc(Oc3ccc(Cl)c(F)c3)cc21 [Example 10, 3-{[6-(4-Chloro-3-fluorophenoxy)-1-methyl-1H-benzimidazol-2-yl]methoxy}benzoic acid hydrochloride]	−29	–	–
–	–	60.2	39700	Cl.Cn1c(COc2cccc(C(=O)O)c2)nc2ccc(Oc3ccc(F)c(Cl)c3)cc21 [Example 12, 3-{[6-(3-Chloro-4-fluorophenoxy)-1-methyl-1H-benzimidazol-2-yl]methoxy}benzoic acid hydrochloride]	–	–	–
